Source: PubChem BioAssay AID328 (DTP/NCI, 2004)
Several values for one entry are separate records, joined by “and”; a condition that tells them apart may be missing. Equal values may be shown once. Toxic doses and inconclusive results are not listed.

Test system: BDF1 mice, P388 leukemia ip, median survival T/C
Assay: NCI In Vivo Anticancer Drug Screen. Data for tumor model P388 Leukemia (intraperitoneal) in B6D2F1 (BDF1) mice
Conditions: endpoint: median survival time, higher = longer survival
Method in brief: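 Reported as T/C, where T is the survival measurement in dosed animals and C the same measurement in vehicle controls.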

[1] = dose: 100.0 mg/kg/injection, schedule: Q04DX003 (ip), vehicle: saline with Tween-80
[2] = dose: 200.0 mg/kg/injection, schedule: Q04DX003 (ip), vehicle: saline with Tween-80
[3] = dose: 400.0 mg/kg/injection, schedule: Q04DX003 (ip), vehicle: saline with Tween-80
[4] = dose: 50.0 mg/kg/injection, schedule: Q01DX009 (ip), vehicle: Klucel (hydroxypropylcellulose) (HPC)
[5] = dose: 100.0 mg/kg/injection, schedule: Q01DX009 (ip), vehicle: Klucel (hydroxypropylcellulose) (HPC)
[6] = dose: 50.0 mg/kg/injection, schedule: Q01DX009 (ip), vehicle: saline with Tween-80
[7] = dose: 50.0 mg/kg/injection, schedule: Q01DX009 (ip), vehicle: saline
[8] = dose: 100.0 mg/kg/injection, schedule: Q01DX009 (ip), vehicle: saline with Tween-80
[9] = dose: 200.0 mg/kg/injection, schedule: Q01DX009 (ip), vehicle: saline with Tween-80
[10] = dose: 12.5 mg/kg/injection, schedule: Q01DX009 (ip), vehicle: saline
[11] = dose: 25.0 mg/kg/injection, schedule: Q01DX009 (ip), vehicle: saline

SMILES: O=C(CC(NC(=O)OCc1ccccc1)c1nn[nH]n1)OCc1ccccc1 (stereo unspecified)
- T/C [1]: 100 % of control
- T/C [2]: 95 % of control
- T/C [3]: 95 % of control

SMILES: CCN(CC)c1ccc2cc3ccc(=[N+](CC)CC)cc-3oc2c1
- T/C (dose: 2.5 mg/kg/injection, schedule: Q01DX009 (ip), vehicle: saline): 120 % of control
- T/C (dose: 7.5 mg/kg/injection, schedule: Q01DX009 (ip), vehicle: saline sonified): 120 % of control
- T/C (dose: 10.0 mg/kg/injection, schedule: Q04DX003 (ip), vehicle: saline): 104 % of control

SMILES: COC1C=COC2(C)Oc3c(C)c(O)c4c(c3C2=O)/C(=N/C2CCC(O)OC2C)C=C(NC(=O)/C(C)=C\C(=O)C2CC2C(O)C(C)C(O)C(C)C(OC(C)=O)C1C)C4=O (stereo unspecified)
- T/C (dose: 4.6 mg/kg/injection, schedule: Q01DX009 (ip), vehicle: saline with Tween-80): 101 % of control
- T/C (dose: 9.25 mg/kg/injection, schedule: Q01DX009 (ip), vehicle: saline with Tween-80): 105 % of control
- T/C (dose: 18.5 mg/kg/injection, schedule: Q01DX009 (ip), vehicle: saline with Tween-80): 89 % of control
- T/C (dose: 37.0 mg/kg/injection, schedule: Q01DX009 (ip), vehicle: saline with Tween-80): 101 % of control

SMILES: Cn1cnc([N+](=O)[O-])c1S(=O)(=O)NCN1CCOCC1
- T/C (dose: 12.5 mg/kg/injection, schedule: Q01DX009 (ip), vehicle: Klucel (hydroxypropylcellulose) (HPC)): 118 % of control
- T/C [4]: 121 % of control
- T/C [5]: 116 % of control

SMILES: Nc1ccc(Cl)c(Cl)c1
- T/C [6]: 98 % of control
- T/C [7]: 106 % of control
- T/C [8]: 104 % of control
- T/C (dose: 100.0 mg/kg/injection, schedule: Q01DX009 (ip), vehicle: saline): 118 % of control
- T/C [9]: 104 % of control

SMILES: Nc1cc2ccncc2c2sc3ccccc3c12
- T/C (dose: 100.0 mg/kg/injection, schedule: Q04DX003 (ip), vehicle: saline): 104 % of control
- T/C (dose: 200.0 mg/kg/injection, schedule: Q04DX003 (ip), vehicle: saline): 97 % of control
- T/C (dose: 400.0 mg/kg/injection, schedule: Q04DX003 (ip), vehicle: saline): 106 % of control

SMILES: O=C1C(=C(C(F)(F)F)C(F)(F)F)C2CCC1C2 (stereo unspecified)
- T/C (dose: 6.25 mg/kg/injection, schedule: Q04DX003 (ip), vehicle: saline with Tween-80): 110 % of control
- T/C (dose: 12.5 mg/kg/injection, schedule: Q04DX003 (ip), vehicle: saline with Tween-80): 100 % of control
- T/C (dose: 25.0 mg/kg/injection, schedule: Q04DX003 (ip), vehicle: saline with Tween-80): 90 % of control

SMILES: NC(=S)N=Nc1ccc(O)c2c(O)ccc(O)c12
- T/C (dose: 6.3 mg/kg/injection, schedule: Q01DX009 (ip), vehicle: water): 96 % of control
- T/C (dose: 12.5 mg/kg/injection, schedule: Q01DX009 (ip), vehicle: water): 94 % of control
- T/C (dose: 25.0 mg/kg/injection, schedule: Q01DX009 (ip), vehicle: water): 92 % of control
- T/C (dose: 50.0 mg/kg/injection, schedule: Q01DX009 (ip), vehicle: water): 86 % of control

SMILES: CN1c2ccc(Cl)cc2C(=O)NC1c1ccc([N+](=O)[O-])s1 (stereo unspecified)
- T/C [6]: 98 % of control and 110 % of control
- T/C [8]: 104 % of control and 113 % of control
- T/C [9]: 112 % of control

SMILES: NNc1cccc(C(F)(F)F)c1
- T/C [10]: 106 % of control
- T/C [11]: 104 % of control
- T/C [7]: 117 % of control

SMILES: Cc1cc(O)c2c(c1)C(c1ccc3cc4c(c(O)c3c1O)C(=O)CC(C)(O)C4)c1cccc(O)c1C2=O (stereo unspecified)
- T/C (dose: 0.09 mg/kg/injection, schedule: Q01DX009 (ip), vehicle: olive oil, sesame oil, peanut oil): 102 % of control
- T/C (dose: 0.19 mg/kg/injection, schedule: Q01DX009 (ip), vehicle: olive oil, sesame oil, peanut oil): 100 % of control
- T/C (dose: 0.39 mg/kg/injection, schedule: Q01DX009 (ip), vehicle: olive oil, sesame oil, peanut oil): 102 % of control
- T/C (dose: 0.78 mg/kg/injection, schedule: Q01DX009 (ip), vehicle: olive oil, sesame oil, peanut oil): 106 % of control

SMILES: Cc1ccc(S(=O)(=O)OCC(C)(C)NC(=O)c2ccc([N+](=O)[O-])cc2)cc1
- T/C (dose: 50.0 mg/kg/injection, schedule: Q01DX001 (ip), vehicle: saline with Tween-80): 100 % of control
- T/C (dose: 100.0 mg/kg/injection, schedule: Q01DX001 (ip), vehicle: saline with Tween-80): 105 % of control
- T/C (dose: 200.0 mg/kg/injection, schedule: Q01DX001 (ip), vehicle: saline with Tween-80): 110 % of control

SMILES: Cc1[nH]c(=O)[nH]c(=O)c1C
- T/C [4]: 104 % of control
- T/C [5]: 109 % of control
- T/C (dose: 200.0 mg/kg/injection, schedule: Q01DX009 (ip), vehicle: Klucel (hydroxypropylcellulose) (HPC)): 104 % of control

SMILES: O=C1c2cc(Cl)ccc2-c2c(NC(=O)C(Cl)Cl)cc(Cl)cc21
- T/C [1]: 104 % of control
- T/C [2]: 113 % of control
- T/C [3]: 104 % of control

SMILES: COc1c(Br)cc(Br)cc1/C=C/[N+](=O)[O-]
- T/C (dose: 6.25 mg/kg/injection, schedule: Q01DX009 (ip), vehicle: saline with Tween-80): 114 % of control
- T/C (dose: 12.5 mg/kg/injection, schedule: Q01DX009 (ip), vehicle: saline with Tween-80): 114 % of control
- T/C (dose: 25.0 mg/kg/injection, schedule: Q01DX009 (ip), vehicle: saline with Tween-80): 116 % of control

SMILES: NCCC(O)C(=O)NC1CC(N)C(OC2OC(CO)C(O)C(O)C2N)C(OC2OC(CO)C(O)C2O)C1O (stereo unspecified)
- T/C [10]: 109 % of control
- T/C [11]: 109 % of control
- T/C [7]: 100 % of control

SMILES: CNC(=S)N1N=C(C)CC1=O
- T/C (dose: 37.5 mg/kg/injection, schedule: Q01DX009 (ip), vehicle: saline with Tween-80): 106 % of control
- T/C (dose: 75.0 mg/kg/injection, schedule: Q01DX009 (ip), vehicle: saline with Tween-80): 99 % of control

SMILES: c1ccc(CN2CCn3nccc32)cc1
- T/C (dose: 6.25 mg/kg/injection, schedule: Q01DX009 (ip), vehicle: other): 98 % of control
- T/C (dose: 12.5 mg/kg/injection, schedule: Q01DX009 (ip), vehicle: other): 90 % of control
- T/C (dose: 12.5 mg/kg/injection, schedule: Q04DX003 (ip), vehicle: other): 104 % of control
- T/C (dose: 25.0 mg/kg/injection, schedule: Q01DX009 (ip), vehicle: other): 91 % of control
- T/C (dose: 25.0 mg/kg/injection, schedule: Q04DX003 (ip), vehicle: other): 91 % of control
- T/C (dose: 50.0 mg/kg/injection, schedule: Q01DX009 (ip), vehicle: other): 94 % of control
- T/C (dose: 50.0 mg/kg/injection, schedule: Q04DX003 (ip), vehicle: other): 91 % of control
- T/C (dose: 100.0 mg/kg/injection, schedule: Q01DX009 (ip), vehicle: other): 92 % of control
- T/C (dose: 100.0 mg/kg/injection, schedule: Q04DX003 (ip), vehicle: other): 92 % of control
- T/C (dose: 200.0 mg/kg/injection, schedule: Q04DX003 (ip), vehicle: other): 96 % of control

SMILES: CCCCCC1(C)OCC(C)O1 (stereo unspecified)
- T/C [6]: 101 % of control
- T/C [8]: 106 % of control
- T/C [9]: 109 % of control

SMILES: O=C(O)CCCc1ccc(N(CCCl)CCCl)cc1
- T/C (dose: 0.25 mg/kg/injection, schedule: Q01DX009 (ip), vehicle: Klucel (hydroxypropylcellulose) (HPC)): 123 % of control
- T/C (dose: 0.5 mg/kg/injection, schedule: Q01DX009 (ip), vehicle: Klucel (hydroxypropylcellulose) (HPC)): 105 % of control
- T/C (dose: 1.5 mg/kg/injection, schedule: Q01DX009 (ip), vehicle: Klucel (hydroxypropylcellulose) (HPC)): 171 % of control
- T/C (dose: 2.0 mg/kg/injection, schedule: Q01DX009 (ip), vehicle: Klucel (hydroxypropylcellulose) (HPC)): 165 % of control
- T/C (dose: 3.0 mg/kg/injection, schedule: Q01DX009 (ip), vehicle: saline): 99 % of control and 100 % of control
- T/C (dose: 3.13 mg/kg/injection, schedule: Q01DX010 (ip), vehicle: saline): 100 % of control
- T/C (dose: 6.0 mg/kg/injection, schedule: Q01DX009 (ip), vehicle: saline): 105 % of control
- T/C (dose: 12.0 mg/kg/injection, schedule: Q01DX009 (ip), vehicle: saline): 122 % of control
- T/C (dose: 12.5 mg/kg/injection, schedule: Q01DX010 (ip), vehicle: saline): 172 % of control
- T/C (dose: 24.0 mg/kg/injection, schedule: Q01DX009 (ip), vehicle: saline): 88 % of control

SMILES: Br/C(=N\Nc1nn[nH]n1)c1ccccc1
- T/C [1]: 87 % of control
- T/C [2]: 91 % of control
- T/C [3]: 91 % of control
